Reference: publication PMC5794198, “Inhibitors of Trypanosoma cruzi Sir2 related protein 1 as potential drugs against Chagas disease” (PLoS Neglected Tropical Diseases, 2018)
Entries after “also recorded” stand apart in the source; their conditions may differ.

Key:
C2C12 cells = experiment: C2C12 host cell cytotoxicity (cell ratio) in HCS assay; type: cell-based, Mouse; conditions: for Selectivity Index: CC50 cell line (C2C12)/EC50 T. cruzi
Description: (§1) For the evaluation of the activity against T. cruzi amastigotes, high-content screening (HCS) was designed. In summary, 100 μL of host C2C12 cells (ATCC) were seeded in clear bottom black 96-well plates at a density of 2.5 x 10^4 cells/mL (2.5 × 10^3 cells/well). […] The parasites were allowed to infect for a 24 hr period, after which compounds were added in a volume of 50 μL. […] After 72 hrs of compound incubation, the wells were fixed with 4% paraformaldehyde for 15 to 30 mins. The plates were then washed once with deionized water and stained with a solution of DAPI (3 μM) for 1 hour. Plates were imaged in an INCell 2000 (GE Healthcare) high-content analyser by taking 16 pictures per well at 20 X objective amplification. Images were analysed with INCell Developer software (GE Healthcare) using the segmentation of host cell nuclei and parasite kinetoplast DNA. The measurement output used was the average number of parasites per cell calculated by the ratio of host cell nuclei/parasite kinetoplast DNA.

[1] = as above; type: cell-based, Mouse; conditions: mouse, cell ratio, 72 h; read-out: C2C12 Cytotoxicity (CC50 ± SD)
Description: as §1

T. cruzi amastigotes = experiment: High-content screening assay on intracellular T. cruzi amastigotes; type: cell-based, Trypanosoma cruzi; conditions: Trypanosoma cruzi, C2C12, 72 h, Y strain in C2C12 host cells, 72 h; read-out: Anti-T. cruzi Activity Amastigotes (EC50 ± SD)
Description: For the evaluation of the activity against T. cruzi amastigotes, high-content screening (HCS) was designed. In summary, 100 μL of host C2C12 cells (ATCC) were seeded in clear bottom black 96-well plates at a density of 2.5 x 10^4 cells/mL (2.5 × 10^3 cells/well). After 24 hrs, 50 μL of Y strain tissue culture-derived trypomastigotes were used to infect the host cells at a density of 7.5 x 10^5/mL (3.75 x 10^4 parasites/well). The parasites were allowed to infect for a 24 hr period, after which compounds were added in a volume of 50 μL. […] After 72 hrs of compound incubation, the wells were fixed with 4% paraformaldehyde for 15 to 30 mins. The plates were then washed once with deionized water and stained with a solution of DAPI (3 μM) for 1 hour. Plates were imaged in an INCell 2000 (GE Healthcare) high-content analyser by taking 16 pictures per well at 20 X objective amplification. Images were analysed with INCell Developer software (GE Healthcare) using the segmentation of host cell nuclei and parasite kinetoplast DNA. The measurement output used was the average number of parasites per cell calculated by the ratio of host cell nuclei/parasite kinetoplast DNA.
In this assay, the compounds are incubated for 72 hours with cells previously infected with wild-type trypomastigotes for 24 hours. The readout was done by comparing the average number of amastigotes per cell that developed by the end of the incubation period. The quality of the assay was statistically evaluated by the calculation of the z-factor [75], that represents the reliability of the assay in distinguishing positive controls confidently from negative controls. Varying from 0 to 1, z-factor values higher than 0.5 are considered acceptable for drug screening. The z-factor obtained was 0.68, validating the use of the assay (S3B Fig).

T. cruzi Y strain (Luc+) = experiment: Mouse model of T. cruzi infection, bioluminescence imaging; type: in vivo, BALB/c mice; conditions: 100 mg/kg/day per os, 4 days
Description: To evaluate BNIPSpd (9) efficacy in vivo, five- to six-week-old female BALB/c mice (Charles River) and infected with T. cruzi trypomastigotes expressing luciferase. Parasites were collected from the supernatants of a monolayer of Vero infected cells, washed and suspended in PBS-glucose 0.2%, and injected intraperitoneally (1 x 10^4 per mouse). After 7 days of infection, mice were treated with drugs for 4 consecutive days orally with (benznidazole in 20% Kolliphor HS 15) or intravenously with (BNIPSpd (9) in 10% DMSO) at a dose of 100 or 5 mg/kg/day, respectively. Infection and treatment efficiency were evaluated following subcutaneous injection of 2.1 mg of luciferin and through live imaging using an IVIS Lumina LT (Perkin Elmer). Images of the animals were analysed using the Living Image software (Perkin Elmer).
Supplementary file pntd.0006180.s006.tif: S5 Fig In vivo efficacy testing of BNIPSpd (9). A) Mice were infected with 10^4 Luc^+ trypomastigotes by intraperitoneal injection. […] In the lower panel, bioluminescence signal of whole mice represented in average radiance (photons/sec/cm^2/sr) quantified before and after treatment. […] B) Snapshot Pharmacokinetics of BNIPSpd (9) in BALB/c mice by quantification of BNIPSpd (9) in the blood of mice by UHPLC-MS/MS ESI+ at different time-points after administration of a 5 mg/kg dose by intravenous injection. […]

[2] = tested on: T. cruzi epimastigotes overexpressing TcSir2rp1 (OE) with the pTcINDEX; experiment: microbe, parasite or virus in culture; type: cell-based; conditions: Trypanosoma cruzi, read-out: EC50 against T. cruzi epimastigotes OE
Description: For the generation of transgenic cell lines, 15 μg of the constructs were digested overnight (SpeI for the pTcINDEX construct; NotI for the knockout constructs), precipitated with sodium acetate / ethanol, and introduced into 1.5 x 10^7 epimastigote cells in the logarithmic phase of growth via transfection using an AMAXA Nucleofector II device (program V-33) with the Human T-cell nucleofector kit (Lonza). Parasites were suspended in fresh growth medium and incubated for 24-hrs to allow for the expression of drug selectable markers, prior to the addition of appropriate antibiotic (Blasticidin S (Thermo Fisher Scientific; 10 μg/mL); Hygromycin B (Formedium; 100 μg/mL); and Puromycin (Calbiochem; 5 μg/mL). Cells were then incubated for a further four- to six-weeks to allow for the selection of transgenic parasites and then genetically verified by PCR using ORF and drug selection primers.
The TcSir2rp1 open reading frame (TriTryp accession number TcCLB.508207.150) was amplified from CL-Brener genomic DNA using KOD polymerase (Novagen). The resulting PCR product encoding the full-length ORF was cloned directly into the T. cruzi expression vector, pTcINDEX [49], using NotI and BamHI restriction sites.
T. cruzi epimastigotes were seeded at 1.25 x 10^6 cells/mL in a 96-well plate in the presence of varying concentrations of test compounds. Following a 64-hour incubation, 15 μL of a resazurin solution (Sigma-Aldrich; 1.1 mg/mL in PBS). Following an additional 6-hr incubation, cell viability was determined by measuring the fluorescence of each culture with a BioTek FLX800 Fluorescence Microplate Reader (excitation and emission wavelengths of 540/535 nm and 590/610 nm, respectively) and associated Gen5 Reader Control 2.0 software. EC50 values were determined by nonlinear regression to a sigmoidal dose-response curve using GraFit software (Version 5.0, Erithacus Software). Each assay was performed in at least triplicate in parallel to the known trypanocidal agent nifurtimox.

[3] = tested on: T. cruzi epimastigotes, wild-type (WT); experiment: T. cruzi epimastigote resazurin viability assay, wild-type; type: cell-based, Trypanosoma cruzi; conditions: CL-Brener, 64 h + 6 h resazurin; means ± SD (n = 4)
Description: T. cruzi epimastigotes were seeded at 1.25 x 10^6 cells/mL in a 96-well plate in the presence of varying concentrations of test compounds. Following a 64-hour incubation, 15 μL of a resazurin solution (Sigma-Aldrich; 1.1 mg/mL in PBS). […] Each assay was performed in at least triplicate in parallel to the known trypanocidal agent nifurtimox.

TcSir2rp1 = TcSir2rp1 (Trypanosoma cruzi, UniProt Q4DVL9); experiment: TcSir2rp1 NAD+-dependent deacetylase fluorimetric assay (CycLex kit); type: biochemical; conditions: for Inhibition of NAD+-dependent deacetylase activity of TcSir2rp1 / inhibition at 10 µM: single dose 10 μM, 200 μM NAD+, 10 μM peptide
Description: The deacetylase activity was measured using the commercial SIRT1/Sir2 Deacetylase Fluorometric Assay Kit (CycLex,Japan) according to the manufacturer’s recommendations. Briefly, fluorescence emission after digestion of deacetylated substrates by a lysine specific endopeptidase was measured in a fluorometric plate reader (Synergy HT, BioTek) with excitation and emission wavelengths set at 340 and 440 nm, respectively, every 30 seconds for 1 hour. The slope of the linear part of the reaction was calculated and used as readout of enzyme activity. […]
(§2) A variety of the bisnaphthalimidopropyl (BNIPs) derivatives, as well as the newly synthetized derivatives were evaluated as potential TcSir2rp1 inhibitors. The enzymatic reactions were performed using a commercially available CycLex SIRT1/Sir2 deacetylase fluorimetric kit (CycLex Co. Ltd., Nagano, Japan) in the absence and presence of the various inhibitors, 200 μM NAD^+ and 10 μM of peptide substrate as previously described.
as §2, with “µM” for “μM”

Solubility = type: physicochemical; conditions: limits the concentration tested

Chain of TcSir2rp1 (Q4DVL9 entry or part of it): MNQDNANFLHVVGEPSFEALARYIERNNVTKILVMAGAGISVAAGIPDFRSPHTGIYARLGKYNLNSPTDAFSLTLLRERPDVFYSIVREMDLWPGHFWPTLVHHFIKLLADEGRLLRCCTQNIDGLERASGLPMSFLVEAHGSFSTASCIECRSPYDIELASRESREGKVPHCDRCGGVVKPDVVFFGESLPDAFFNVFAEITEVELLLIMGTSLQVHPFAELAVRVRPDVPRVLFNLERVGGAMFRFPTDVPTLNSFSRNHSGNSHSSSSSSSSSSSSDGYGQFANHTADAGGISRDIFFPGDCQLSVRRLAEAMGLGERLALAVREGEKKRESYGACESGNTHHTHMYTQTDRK

In the case of `O=C(Cn1ccnc1[N+](=O)[O-])NCc1ccccc1` [Benznidazole, benznidazole, reference compound], the “Selectivity Index” value (C2C12 cells) is reported as over 81.0, the CC50 at 72 h [1] is reported as over 100000 nM and the EC50 (T. cruzi amastigotes) is reported as 1230 ± 300 nM. The “Reduction in the bioluminescence signal compared to vehicle” value (T. cruzi Y strain (Luc+)) was 700 fold.

In the case of `O=C1c2cccc3cccc(c23)C(=O)N1CCCNCCCCCNCCCN1C(=O)c2cccc3cccc(c23)C1=O` [Compound 2], the “Host cell toxicity in primary screening” value (C2C12 cells; single dose 2.5 μM) is reported as “high cytotoxicity”, the EC50 [2] is reported as 7940 ± 780 nM and the “EC50 against T. cruzi epimastigotes WT” value [3] is reported as “just as potent as nifurtimox”. For the same molecule, the inhibition at 50 µM (TcSir2rp1; 50 μM) was 55 ± 4%, the “Inhibition of NAD+-dependent deacetylase activity of TcSir2rp1” value (TcSir2rp1) was “statistically significant inhibition” and the inhibition at 10 µM (TcSir2rp1) was 42 ± 13%.

In the case of `O=C1c2cccc3cccc(c23)C(=O)N1CCCNCCCCCCNCCCN1C(=O)c2cccc3cccc(c23)C1=O` [Compound 3], the EC50 [2] is reported as 102000 ± 9900 nM, the “Solubility in assay (qualitative)” value (Solubility) is reported as “low solubility; also recorded: poor solubility” and the “EC50 against T. cruzi epimastigotes WT” value [3] is reported as “moderate activity”. For the same molecule, the inhibition at 20 µM (TcSir2rp1) was 34 ± 11%, the “Inhibition of NAD+-dependent deacetylase activity of TcSir2rp1” value (TcSir2rp1) was “statistically significant inhibition” and the inhibition at 10 µM (TcSir2rp1) was 31 ± 8%.

In the case of `O=C1c2cccc3cccc(c23)C(=O)N1CCCNCCCCCCCCCNCCCN1C(=O)c2cccc3cccc(c23)C1=O` [Compound 6], the “Selectivity Index” value (C2C12 cells) is reported as 1.7, the CC50 at 72 h [1] is reported as 2350 ± 770 nM and the EC50 [2] is reported as 113000 ± 8200 nM. The “EC50 against T. cruzi epimastigotes WT” value [3] was “moderate activity” and the EC50 (T. cruzi amastigotes) was 1450 ± 370 nM.

For `O=C1c2cccc3cccc(c23)C(=O)N1CCCNCCCCCCCCCCNCCCN1C(=O)c2cccc3cccc(c23)C1=O` [Compound 7], the EC50 [2] was 2970 ± 600 nM and the “EC50 against T. cruzi epimastigotes WT” value [3] was “just as potent as nifurtimox”.
